Assay results: patent US20240101570A1 (AMGEN INC., priority 2020, published 2024)

Tests used:
[1] = tested on: HCT116 MTAP null cells; assay: HCT116 MTAP null cell proliferation / viability (CellTiter-Glo, 6 days); type: cell-based; settings: HCT116-MTAP null, 144 h, HCT116 MTAP null cells, 6 days, CellTiter-Glo; read-out: HCT-116 MTAP null IC50
Method in brief: (§1)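 Viability read by CellTiter-Glo after 6-day compound exposure of MTAP-null and wild-type HCT116 cells grown in RPMI 1640 with 10% FBS. Dosing used 1:3 steps from 1 or 10 μM (8-9 points) or 1:2 steps from 10 or 50 μM (22 points); IC50 taken where fitted curve crosses 50% of control.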

[2] = tested on: HCT116 WT cells; assay: HCT116 WT cell proliferation / viability (CellTiter-Glo, 6 days); type: cell-based; settings: Homo sapiens, HCT-116, 144 h, HCT116 WT cells, 6 days, CellTiter-Glo; read-out: HCT-116 WT IC50
Method in brief: as §1

Compound | IC50 [1] [nM] | IC50 [2] [nM]
CCN(C(=O)c1ccc2nc(N)c3c(c2c1)CO[C@@H]3C)[C@H](C)c1ccc(C(F)(F)F)nn1 [Example 778, (3R)-4-amino-N-ethyl-3-methyl-N-((1R)-1-(6-(trifluoromethyl)-3-pyridazinyl)ethyl)-1,3-dihydrofuro[3,4-c]quinoline-8-carboxamide] | 49 | 2660
C[C@H](c1ccc(C(F)(F)F)nn1)N(C)C(=O)c1cc2c(cc1F)nc(N)c1c2cnn1C [Example 779, 4-amino-7-fluoro-N,3-dimethyl-N-((1R)-1-(6-(trifluoromethyl)-3-pyridazinyl)ethyl)-3H-pyrazolo[3,4-c]quinoline-8-carboxamide] | 364 | 28900
C[C@H](c1cnc(C(F)(F)F)cn1)N(C)C(=O)c1cc2c(cc1F)nc(N)c1cnn(C)c12 [Example 780, 4-amino-7-fluoro-N,1-dimethyl-N-((1R)-1-(5-(trifluoromethyl)-2-pyrazinyl)ethyl)-1H-pyrazolo[4,3-c]quinoline-8-carboxamide] | 22 | 1180
CCN(C(=O)c1cc2c3c(c(N)nc2cc1F)COC3)[C@H](C)c1ccc(C(F)(F)F)nn1 [Example 781, 4-amino-N-ethyl-7-fluoro-N-((1R)-1-(6-(trifluoromethyl)-3-pyridazinyl)ethyl)-1,3-dihydrofuro[3,4-c]quinoline-8-carboxamide] | 37 | 1310
CN(Cc1ccc(C(F)(F)F)nc1F)C(=O)c1cc2c(cc1F)nc(N)c1cnn(C)c12 [Example 782, 4-amino-7-fluoro-N-((2-fluoro-6-(trifluoromethyl)-3-pyridinyl)methyl)-N,1-dimethyl-1H-pyrazolo[4,3-c]quinoline-8-carboxamide] | 80 | 7770
CCN(C(=O)c1ccc2nc(N)c3c(c2c1)COC3)[C@@H](c1ccc(C(F)(F)F)nn1)C1CC1 [Example 783, 4-amino-N-((R)-cyclopropyl(6-(trifluoromethyl)-3-pyridazinyl)methyl)-N-ethyl-1,3-dihydrofuro[3,4-c]quinoline-8-carboxamide] | 868 | 16400
CCN(C(=O)c1cc2c3c(c(N)nc2cc1F)[C@@H](C)OC3)[C@H](C)c1ccc(C(F)(F)F)nn1 [Example 784, (3R)-4-amino-N-ethyl-7-fluoro-3-methyl-N-((1R)-1-(6-(trifluoromethyl)-3-pyridazinyl)ethyl)-1,3-dihydrofuro[3,4-c]quinoline-8-carboxamide] | 22 | 609
CCN(C(=O)c1cc2c3c(c(N)nc2cc1F)[C@H](C)OC3)[C@H](C)c1ccc(C(F)(F)F)nn1 [Example 785, (3S)-4-amino-N-ethyl-7-fluoro-3-methyl-N-((1R)-1-(6-(trifluoromethyl)-3-pyridazinyl)ethyl)-1,3-dihydrofuro[3,4-c]quinoline-8-carboxamide] | 851 | 19800
C[C@H](c1ccc(C(F)(F)C(F)(F)F)cc1)N(C)C(=O)c1cc2c(cn1)nc(N)c1c2cnn1C [Example 786, 4-amino-N,3-dimethyl-N-((1R)-1-(4-(pentafluoroethyl)phenyl)ethyl)-3H-pyrazolo[3,4-c][1,7]naphthyridine-8-carboxamide] | 126 | 7330
C[C@@H](c1ccc(C(F)(F)C(F)(F)F)cc1)N(C)C(=O)c1cc2c(cc1F)nc(N)c1cnn(C)c12 [Example 787, 4-amino-7-fluoro-N,1-dimethyl-N-((1S)-1-(4-(pentafluoroethyl)phenyl)ethyl)-1H-pyrazolo[4,3-c]quinoline-8-carboxamide] | 865 | 8970
C[C@H](c1ccc(C(F)(F)C(F)(F)F)cc1)N(C)C(=O)c1cc2c(cc1F)nc(N)c1cnn(C)c12 [Example 788, 4-amino-7-fluoro-N,1-dimethyl-N-((1R)-1-(4-(pentafluoroethyl)phenyl)ethyl)-1H-pyrazolo[4,3-c]quinoline-8-carboxamide] | 8 | 134
CN(Cc1ccc(-c2cnn(C(F)(F)F)c2)cn1)C(=O)c1cc2c(cc1F)nc(N)c1cnn(C)c12 [Example 789, 4-amino-7-fluoro-N,1-dimethyl-N-((5-(1-(trifluoromethyl)-1H-pyrazol-4-yl)-2-pyridinyl)methyl)-1H-pyrazolo[4,3-c]quinoline-8-carboxamide] | 83 | 6930
Cn1ncc2c(N)nc3ccc(C(=O)N(Cc4ccc(C(F)(F)F)nn4)C4CC4)cc3c21 [Example 790, 4-amino-N-cyclopropyl-1-methyl-N-((6-(trifluoromethyl)-3-pyridazinyl)methyl)-1H-pyrazolo[4,3-c]quinoline-8-carboxamide] | 776 | 47100
CN(Cc1ccc(C(F)(F)F)cn1)C(=O)c1cc2c(cc1Cl)nc(N)c1cnn(C)c12 [Example 791, 4-amino-7-chloro-N,1-dimethyl-N-((5-(trifluoromethyl)-2-pyridinyl)methyl)-1H-pyrazolo[4,3-c]quinoline-8-carboxamide] | 11 | 341
CN(Cc1ccc(C(F)(F)F)nn1)C(=O)c1cc2c(cc1Cl)nc(N)c1cnn(C)c12 [Example 792, 4-amino-7-chloro-N,1-dimethyl-N-((6-(trifluoromethyl)-3-pyridazinyl)methyl)-1H-pyrazolo[4,3-c]quinoline-8-carboxamide] | 30 | 2330
CCN(Cc1ccc(C(F)(F)F)cn1)C(=O)c1cc2c(cc1Cl)nc(N)c1cnn(C)c12 [Example 793, 4-amino-7-chloro-N-ethyl-1-methyl-N-((5-(trifluoromethyl)-2-pyridinyl)methyl)-1H-pyrazolo[4,3-c]quinoline-8-carboxamide] | 11 | 296
CCN(Cc1ccc(C(F)(F)F)nn1)C(=O)c1cc2c(cc1Cl)nc(N)c1cnn(C)c12 [Example 794, 4-amino-7-chloro-N-ethyl-1-methyl-N-((6-(trifluoromethyl)-3-pyridazinyl)methyl)-1H-pyrazolo[4,3-c]quinoline-8-carboxamide] | 20 | 499
Cn1ncc2c(N)nc3cc(Cl)c(C(=O)N(Cc4ccc(C(F)(F)F)cn4)C4CC4)cc3c21 [Example 795, 4-amino-7-chloro-N-cyclopropyl-1-methyl-N-((5-(trifluoromethyl)-2-pyridinyl)methyl)-1H-pyrazolo[4,3-c]quinoline-8-carboxamide] | 8 | 379
Cn1ncc2c(N)nc3cc(Cl)c(C(=O)N(Cc4ccc(C(F)(F)F)nn4)C4CC4)cc3c21 [Example 796, 4-amino-7-chloro-N-cyclopropyl-1-methyl-N-((6-(trifluoromethyl)-3-pyridazinyl)methyl)-1H-pyrazolo[4,3-c]quinoline-8-carboxamide] | 34 | 1670
Cn1ncc2c(N)nc3ccc(C(=O)N(Cc4ccc(C(F)(F)F)cn4)CC(F)(F)F)cc3c21 [Example 797, 4-amino-1-methyl-N-(2,2,2-trifluoroethyl)-N-((5-(trifluoromethyl)-2-pyridinyl)methyl)-1H-pyrazolo[4,3-c]quinoline-8-carboxamide] | 41 | 755
Cn1ncc2c(N)nc3cc(Cl)c(C(=O)N(Cc4ccc(C(F)(F)F)cn4)C4CCC4)cc3c21 [Example 798, 4-amino-7-chloro-N-cyclobutyl-1-methyl-N-((5-(trifluoromethyl)-2-pyridinyl)methyl)-1H-pyrazolo[4,3-c]quinoline-8-carboxamide] | 10 | 152
Cn1ncc2c(N)nc3cc(Cl)c(C(=O)N(Cc4ccc(C(F)(F)F)nn4)C4CCC4)cc3c21 [Example 799, 4-amino-7-chloro-N-cyclobutyl-1-methyl-N-((6-(trifluoromethyl)-3-pyridazinyl)methyl)-1H-pyrazolo[4,3-c]quinoline-8-carboxamide] | 8 | 263
Cn1ncc2c(N)nc3cc(F)c(C(=O)N(Cc4ccc(C(F)(F)F)cn4)CC(F)(F)F)cc3c21 [Example 800, 4-amino-7-fluoro-1-methyl-N-(2,2,2-trifluoroethyl)-N-((5-(trifluoromethyl)-2-pyridinyl)methyl)-1H-pyrazolo[4,3-c]quinoline-8-carboxamide] | 7 | 245
Cn1ncc2c(N)nc3cc(F)c(C(=O)N(Cc4cocn4)C4CCC4)cc3c21 [Example 801, 4-amino-N-cyclobutyl-7-fluoro-1-methyl-N-(1,3-oxazol-4-ylmethyl)-1H-pyrazolo[4,3-c]quinoline-8-carboxamide] | 153 | 13600
CN(Cc1ccc(C(F)(F)F)cn1)C(=O)c1cc2c(cc1F)nc(N)c1cnn(C)c12 [Example 802, 4-amino-7-fluoro-N,1-dimethyl-N-((5-(trifluoromethyl)-2-pyridinyl)methyl)-1H-pyrazolo[4,3-c]quinoline-8-carboxamide] | 21 | 1380
Cn1ncc2c(N)nc3cc(F)c(C(=O)N(Cc4ccc(C(F)(F)F)cn4)C4CC4)cc3c21 [Example 803, 4-amino-N-cyclopropyl-7-fluoro-1-methyl-N-((5-(trifluoromethyl)-2-pyridinyl)methyl)-1H-pyrazolo[4,3-c]quinoline-8-carboxamide] | 12 | 384
Cn1ncc2c(N)nc3cc(F)c(C(=O)N(Cc4ccc(C(F)(F)F)nn4)C4CC4)cc3c21 [Example 804, 4-amino-N-cyclopropyl-7-fluoro-1-methyl-N-((6-(trifluoromethyl)-3-pyridazinyl)methyl)-1H-pyrazolo[4,3-c]quinoline-8-carboxamide] | 26 | 1800
